Data: patent US12377127B2, “Treatment for diseases caused by RNA virus SARS-CoV-2” (Amerimmune, LLC, priority 2020, dated 2025)

Experiments:
[1] = system: red blood cell (RBC) layer in the PBMC layer ("red ring"); assay type: cell-based, human; settings: PBMCs from COVID-19 patient samples, 1 micromolar, room temperature, 17 hours
Caspase 1 [2] = target: T1, Caspase 1 (Homo sapiens, UniProt P29466); experiment: Active caspase-1 by FAM-FLICA flow cytometry in PBMCs from Emricasan-treated COVID-19(+) whole blood (Example 7); assay type: cell-based; settings: 1 μM
T1 construct: A Fam-FLICA probe specific for Caspase 1 was directly added to 50 μl PBMC; endogenous in cells; host or cells: PBMC (CD3-, CD3+, CD3+CD4+ lymphocytes) purified from human whole blood
T1 sequence (P29466 120-297 limits assumed): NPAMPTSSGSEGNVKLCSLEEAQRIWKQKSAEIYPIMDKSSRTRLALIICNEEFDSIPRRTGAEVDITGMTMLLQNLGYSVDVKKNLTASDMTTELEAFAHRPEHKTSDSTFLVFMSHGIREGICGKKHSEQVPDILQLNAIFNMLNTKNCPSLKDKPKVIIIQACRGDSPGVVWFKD
T1 sequence (P29466 317-404 limits assumed): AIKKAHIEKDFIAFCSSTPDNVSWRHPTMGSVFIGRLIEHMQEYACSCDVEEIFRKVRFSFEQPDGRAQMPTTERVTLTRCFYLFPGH
Experimental: Whole blood from COVID-19(+) patients was incubated either (A) without addition of Emricasan (Untreated) or (B) with Emricasan (Sigma Aldrich, MO, SML2227-5MG), 1 μM final concentration for 3.5 hours at room temperature (Treated). Following incubation with or without Emricasan, PBMCs were purified using an Accuspin System—Histopaque 1077 (Sigma Aldrich, MO, A6929) as per the manufacturer's instructions. Purified Treated and Untreated PBMCs were incubated with nigericin (Immunochemistry Technologies, MN) as per the manufacturer's instructions for 2 hours. A Fam-FLICA probe specific for Caspase 1 was directly added to 50 μl PBMC and then incubated for 1 hour at 37° C. PMBCs were washed with cell wash buffer (Immunochemistry Technologies, MN) to remove unbound FLICA probes. Washed PBMCs were FACS-sorted using CD45 PE-CY7 [H130], CD3 AF700 [UCHT1], CD4 PE [RPA-T4], CD45RO PerCP-EF710 [UCHL], and Viability Dye 780 (Thermo Fisher Scientific, Carlsbad, CA) to identify viable CD3−cells as well as CD3+ cells and CD3+ CD4+ T cells. Lymphocytes were identified using a standard gating schematic that incorporated gating of lymphocytes on a FSC/SSC plot and singlets on a FSC-A/FSC-H plot. Lymphocytes were further identified as CD45+ on a CD45/SSC plot and subsequent CD3−, CD3+, and CD3+ CD4+ cells were identified on a CD45+ CD3/CD4 plot.
In another experiment, whole blood was incubated with 1 μM Emricasan for 17 hours (overnight between 5 PM to 10 AM) at room temperature on a rocker. The same experiment described above to examine active caspase 1 in PBMCs was performed.

Caspase 1 [3] = target: T1, Caspase 1; experiment: Ex vivo stimulation: active caspase-1 in CD4 T (T-helper) cells after whole blood incubation with caspase inhibitors (Example 9); assay type: cell-based; settings: inhibitor 24 hrs, then with or without nigericin; for T-helper cell caspase-1 expression: COVID-19 whole blood samples
Experimental: Apoptosis and pyroptosis were measured by flow cytometry using fluorescent-labeled inhibitors of caspase probe assay (FLICA; Immunochemistry Technologies, Minneapolis, MN). As a control, PBMCs were stimulated with nigericin for 2 hours. FAM-FLICA probes specific for caspase-1 was added to 50 μl PBMC and incubated for 1h at 37° C. Cells were subsequently washed and stained for CD45 PE-CY7 [HI30], CD3 AF700 [UCHT1], CD4 PE [RPA-T4], CD45RO PerCP-EF710 [UCHL1], and Viability Dye 780 (Thermo Fisher Scientific, Carlsbad, CA). Samples were acquired on a 3 laser BD FACS Canto 10. CS&T beads (BD Bioscience, San Jose, CA) were acquired daily to ensure consistent performance of the Canto10. The CANTO10 utilized for this study was validated for T, B, NK, and dendritic cell immunophenotyping clinical diagnostic testing. Denovo FCS Express v6 clinical edition (De Novo Software, Pasadena, CA) was used for flow cytometric analyses.
Active caspase-1 in COVID-19+ patient samples. Whole blood from a COVID-19 positive patient was either (A) untreated or (B) treated with emricasan (1 μM, Sigma Aldrich, MO, SML2227-5MG) or selective caspase-1 inhibitor VX765 overnight at 37° C. in a water bath. Subsequently, PBMCs were purified (Accuspin System—Histopaque 1077; Sigma Aldrich, MO, A6929) and incubated with nigericin (Immunochemistry Technologies, MN) for 2h. A Fam-FLICA probe specific for active caspase-1 was added to 50 μl PBMC and then incubated for 1h at 37° C. PMBCs were washed with cell wash buffer (Immunochemistry Technologies, MN) and stained with CD45 PE-CY7 [H130], CD3 AF700 [UCHT1], CD4 PE [RPA-T4], CD45RO PerCP-EF710 [UCHL1], and Viability Dye 780 (Thermo Fisher Scientific, Carlsbad, CA). Lymphocytes were identified using a standard gating schematic that incorporated gating of lymphocytes on an FSC/SSC plot and singlets on a FSC-A/FSC-H plot. Lymphocytes were further identified as CD45+ on a CD45/SSC plot and subsequent CD3−, CD3+ and CD3+CD4+ cells were identified on a CD45+ CD3/CD4 plot. Shown are the active caspase-1 MFI and % positive for the three cellular populations indicated. […]

caspase-3 = target: T2, caspase-3 (Homo sapiens, UniProt P42574); experiment: Caspase-3 in RBCs incubated with patient plasma (Example 9); assay type: cell-based
T2 construct: EMR suppressed the caspase-3 up-regulation in the COVID-19 plasma incubated samples; endogenous in cells; host or cells: human red blood cells (healthy subjects' RBCs incubated with patient plasma)
T2 sequence (P42574 29-277): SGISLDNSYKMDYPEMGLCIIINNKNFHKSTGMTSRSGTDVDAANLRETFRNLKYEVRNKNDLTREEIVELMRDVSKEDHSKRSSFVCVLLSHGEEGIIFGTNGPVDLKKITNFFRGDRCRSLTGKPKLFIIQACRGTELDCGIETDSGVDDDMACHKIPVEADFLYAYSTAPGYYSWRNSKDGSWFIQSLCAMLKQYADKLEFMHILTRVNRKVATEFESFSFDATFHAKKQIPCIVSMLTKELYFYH
Experimental: Plasma was separated from whole blood following centrifugation at 960 RCF. Cells (RBC and WBC) were either incubated at 37° C. alone or in the presence of trypsin for 1 hour then washed with 10 packed cell volumes of RPMI 1640 incomplete medium. Plasma was either held at room temperature (18-25° C.) or heat inactivated at 56° C. for 1 hr. Plasma was added back to the RBC/WBC in a 1:1 ratio and incubated overnight, rocking at room temperature.
Cellular caspases are not limited to immune cells. […] In the process of Ficoll separation, a layer of RBCs contaminating the PBMC layer was observed, which layer was universally present in all samples from COVID-19 individuals (FIG. 6A). This finding was also present in up to 80% of COVID-19 convalescent subjects. Plasma from acutely infected subjects induced a similar finding when incubated overnight with plasma depleted whole blood of healthy patients.

[4] = COVID-19(+) whole blood, 3.5 hours, room temperature, nigericin 2 hours, CD3-, CD3+, CD3+CD4+ cells, vs untreated, p≤0.005

Row | Compound | "red ring" (RBC layer contaminating PBMCs) [1] | active caspase-1 % positive cells (Caspase 1 [2]; [4]) | active caspase-1 MFI (Caspase 1 [2]; [4]) | inhibition of nigericin-induced Caspase-1 activity (Caspase 1 [2]; whole blood, 17 hours (overnight), room temperature on a rocker, 3 samples from COVID-19 patients) | T-helper cell caspase-1 expression (Caspase 1 [3]) | T-helper cell caspase-1 upregulation (Caspase 1 [3]; healthy subjects' whole blood) | RBC caspase-3 up-regulation (caspase-3; healthy subjects' RBCs incubated with COVID-19 plasma) | RBC caspase-3 baseline expression levels (caspase-3; influenza-plasma incubated samples)
1 | C[C@H](NC(=O)C(=O)Nc1ccccc1C(C)(C)C)C(=O)N[C@@H](CC(=O)O)C(=O)COc1c(F)c(F)cc(F)c1F [Emricasan, (3S)-3-{[(2S)-2-{[2-(2-tert-butylanilino)-2-oxoacetyl]amino}propanoyl]amino}-4-oxo-5-(2,3,5,6-tetrafluorophenoxy)pentanoic acid] | decrease | significant reduction | significant reduction | seen in only ⅓ sample | suppressed | prevented its upregulation | suppressed | did not change
2 | CCO[C@@H]1OC(=O)C[C@@H]1NC(=O)[C@@H]1CCCN1C(=O)[C@@H](NC(=O)c1ccc(N)c(Cl)c1)C(C)(C)C [VX765, Belnacasan] |  |  |  |  | did not show a strong similar suppressive effect |  |  | 
